# According to US6355799B1, “Substituted benzene compounds, process for their preparation, and herbicidal and defoliant compositions containing them” (ISK Americas Incorporated, priority 1997, dated 2002):
# Assays:
# Type in all cases: in vivo
# [1] = system: redroot pigweed (Amaranthus retroflexus, AMARE); assay: Pre-emerge test, greenhouse herbicide activity screening; conditions: phytotoxicity rating 0-100, 14 days after application
# Procedure, shortened: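 Herbicidal damage is scored 0 (none) to 100 (complete plant death) two weeks after a simulated field spray. Rates span 15–1000 g ai/ha, delivered in acetone at 187 l/ha. For post-emergence treatments, plants have 2–3 leaves and the spray carries 0.25% v/v non-ionic surfactant.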
# [2] = system: velvetleaf (Abutilon theophrasti, ABUTH); assay: Post-emerge test, greenhouse herbicide activity screening; conditions: post-emerge, 14 days after application, rating scale 0-100
# From the text: (§1) A standard greenhouse herbicide activity screening system was used to evaluate the herbicidal efficacy and crop safety of these test compounds. Seven broadleaf weed species including redroot pigweed (Amaranthus retroflexus, AMARE, velvetleaf (Abutilon theophrasti, ABUTH), sicklepod (Cassia obtusifolia, CASOB), ivyleaf morningglory (Ipomoea hederacea, IPOHE), lambsquarters (Chenopodium album, CHEAL), common ragweed (Ambrosia artemisizfolia L., AMBEL), and cocklebur (Xanthium strumarium, XANST) were used as test species. Four grass weed species including green foxtail (Setaria viridis, SETVI), barnyardgrass (Echinochloa crus-galli, ECHCG), johnsongrass (Sorghum halepense, SORHA), and large crabgrass (Digitaria sanguinalis, DIGSA) were also used. In addition, three crop species, field corn (Zea mays L., var. Dekalb 535, CORN), soybean (Glycine max L., var. Pella 86, SOY), and is upland rice (Oryza sp., var. Tebonnet, RICE) were included.
# (§2) All plants were grown in 10 cm square plastic pots which were filled with a sandy loam soil mix. For pre-emerge tests, seeds were planted one day prior to application of the test compounds. For post-emerge tests, seeds were planted 8-21 days prior to the test to allow emergence and good foliage development prior to application of the test substances. At the time of the post-emerge application, plants of all species were usually at the 2-3 leaf stage of development.
# (§3) All test compounds Were dissolved in acetone and applied to the test units in a volume of 187 l /ha. Test materials were applied at rates ranging from 15 g ai/ha to 1000 g ai/ha using a track sprayer equipped with a TJ8001E even flow flat fan spray nozzle. Plants were arranged on a shelf so that the top of the canopy (post-emerge) or top of the soil surface (pre-emerge) was 40-45 cm below the nozzle. Pressurized air was used to force the test solution through the nozzle as it was mechanically advanced (via electrically driven chain drive) over the top of all test plants/pots. This application simulates a typical commercial field herbicide application.
# (§4) In the post-emerge test, a commercial non-ionic surfactant was also included (0.25% v/v) to enhance wetting of the leaf surfaces of target plants. Immediately after application, test units of the pre-emerge applications were watered at the soil surface to incorporate the test materials. Subsequently, these test units were bottom-watered. Post-emerge test units were always bottom-watered.
# (§5) At 14 days after application of the test materials, phytotoxicity ratings were recorded. A rating scale of 0-100 was used as previously described in Research Methods in Weed Science, 2nd edition, B. Truelove, Ed., Southern Weed Science Society, Auburn University, Auburn, Ala. 1977. Briefly, “0” corresponds to no damage and “100” corresponds to complete death of all plants in the test unit. This scale was used both to determine efficacy against weed species and damage to crop species. Herbicide activity data for various compounds of this invention, which are shown by compound No. in Tables 1-8, are shown in Tables 11 and 12.
# [3] = system: large crabgrass (Digitaria sanguinalis, DIGSA); assay: as above; conditions: post-emerge, 14 days after application, rating scale 0-100
# From the text: as §1, §2, §3, §4, §5
# [4] = system: lambsquarters (Chenopodium album, CHEAL); assay: as above; conditions: post-emerge, 14 days after application, rating scale 0-100
# From the text: as §1, §2, §3, §4, §5
# [5] = system: green foxtail (Setaria viridis, SETVI); assay: as above; conditions: post-emerge, 14 days after application, rating scale 0-100
# From the text: as §1, §2, §3, §4, §5
# [6] = system: redroot pigweed (Amaranthus retroflexus, AMARE); assay: as above; conditions: post-emerge, 14 days after application
# From the text: as §1, §2, §3, §4, §5
# [7] = system: ivyleaf morningglory (Ipomoea hederacea, IPOHE); assay: as above; conditions: post-emerge, 14 days after application, rating scale 0-100
# From the text: as §1, §2, §3, §4, §5
# [8] = system: sicklepod (Cassia obtusifolia, CASOB); assay: as above; conditions: post-emerge, 14 days after application, rating scale 0-100
# From the text: as §1, §2, §3, §4, §5
# [9] = system: barnyardgrass (Echinochloa crus-galli, ECHCG); assay: as above; conditions: post-emerge, 14 days after application, rating scale 0-100
# From the text: as §1, §2, §3, §4, §5
# [10] = system: field corn (Zea mays L., var. Dekalb 535, CORN); assay: Post-emerge test, crop safety; conditions: post-emerge, 14 days after application, rating scale 0-100
# Procedure, shortened: (§6)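 Rating: 0–100 visual injury, 14 DAA. Application: acetone, 187 l/ha, 15–1000 g ai/ha, flat-fan track sprayer with nozzle 40–45 cm above soil or canopy. Post-emerge runs used 0.25% v/v surfactant on 2–3 leaf plants.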
# [11] = system: upland rice (Oryza sp., var. Tebonnet, RICE); assay: Post-emerge test, crop safety; conditions: post-emerge, 14 days after application, rating scale 0-100
# Procedure, shortened: as §6
# [12] = system: field corn (Zea mays L., var. Dekalb 535, CORN); assay: Pre-emerge test, crop safety; conditions: crop damage rating 0-100, 14 days after application
# Procedure, shortened: as §6
# [13] = system: upland rice (Oryza sp., var. Tebonnet, RICE); assay: Pre-emerge test, crop safety; conditions: crop damage rating 0-100, 14 days after application
# Procedure, shortened: as §6
# [14] = system: velvetleaf (Abutilon theophrasti, ABUTH); assay: Pre-emerge test, greenhouse herbicide activity screening; conditions: phytotoxicity rating 0-100, 14 days after application
# Procedure, shortened: (§7)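 Compounds in acetone were track-sprayed at 15–1000 g ai/ha: pre-emergence onto soil sown the previous day, then top-watered to incorporate and later bottom-watered; post-emergence onto 2–3 leaf plants with 0.25% v/v surfactant, bottom-watered only. Ratings on a 0–100 phytotoxicity scale were taken at day 14.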
# [15] = system: large crabgrass (Digitaria sanguinalis, DIGSA); assay: as above; conditions: phytotoxicity rating 0-100, 14 days after application
# Procedure, shortened: as §7
# [16] = system: lambsquarters (Chenopodium album, CHEAL); assay: as above; conditions: phytotoxicity rating 0-100, 14 days after application
# Procedure, shortened: as §7
# [17] = system: green foxtail (Setaria viridis, SETVI); assay: as above; conditions: phytotoxicity rating 0-100, 14 days after application
# Procedure, shortened: as §7
# [18] = system: ivyleaf morningglory (Ipomoea hederacea, IPOHE); assay: as above; conditions: phytotoxicity rating 0-100, 14 days after application
# Procedure, shortened: as §7
# [19] = system: sicklepod (Cassia obtusifolia, CASOB); assay: as above; conditions: phytotoxicity rating 0-100, 14 days after application
# Procedure, shortened: as §7
# [20] = system: barnyardgrass (Echinochloa crus-galli, ECHCG); assay: as above; conditions: phytotoxicity rating 0-100, 14 days after application
# Procedure, shortened: as §7
compound,measurement,setting,value
COc1c(Cl)cc(F)c(-n2c(=O)cc(C(F)(F)F)n(C)c2=O)c1NC(=O)OCc1cccc(F)c1 [4-44],Pre-emerge Herbicidal Activity AMARE,[1]; 63 g ai/ha,100
same,Pre-emerge Herbicidal Activity AMARE,[1]; 250 g ai/ha,100
same,phytotoxicity rating ABUTH,[2]; 63 g ai/ha,100
same,phytotoxicity rating ABUTH,[2]; 250 g ai/ha,100
same,phytotoxicity rating DIGSA,[3]; 63 g ai/ha,70
same,phytotoxicity rating DIGSA,[3]; 250 g ai/ha,95
same,phytotoxicity rating CHEAL,[4]; 63 g ai/ha,100
same,phytotoxicity rating CHEAL,[4]; 250 g ai/ha,100
same,phytotoxicity rating SETVI,[5]; 63 g ai/ha,95
same,phytotoxicity rating SETVI,[5]; 250 g ai/ha,90
same,phytotoxicity rating AMARE,"[6]; 63 g ai/ha, rating scale 0-100 (0 no damage, 100 complete death)",100
same,phytotoxicity rating AMARE,"[6]; 250 g ai/ha, rating scale 0-100",100
same,phytotoxicity rating IPOHE,[7]; 63 g ai/ha,100
same,phytotoxicity rating IPOHE,[7]; 250 g ai/ha,100
same,phytotoxicity rating CASOB,[8]; 63 g ai/ha,100
same,phytotoxicity rating CASOB,[8]; 250 g ai/ha,100
same,phytotoxicity rating ECHCG,[9]; 63 g ai/ha,70
same,phytotoxicity rating ECHCG,[9]; 250 g ai/ha,90
same,phytotoxicity rating CORN (crop damage),[10]; 63 g ai/ha,90
same,phytotoxicity rating CORN (crop damage),[10]; 250 g ai/ha,100
same,phytotoxicity rating RICE (crop damage),[11]; 63 g ai/ha,70
same,phytotoxicity rating RICE (crop damage),[11]; 250 g ai/ha,80
same,Pre-emerge Herbicidal Activity CORN,[12]; 63 g ai/ha,70
same,Pre-emerge Herbicidal Activity CORN,[12]; 250 g ai/ha,95
same,Pre-emerge Herbicidal Activity RICE,[13]; 63 g ai/ha,70
same,Pre-emerge Herbicidal Activity RICE,[13]; 250 g ai/ha,65
same,Pre-emerge Herbicidal Activity ABUTH,[14]; 63 g ai/ha,100
same,Pre-emerge Herbicidal Activity ABUTH,[14]; 250 g ai/ha,100
same,Pre-emerge Herbicidal Activity DIGSA,[15]; 63 g ai/ha,100
same,Pre-emerge Herbicidal Activity DIGSA,[15]; 250 g ai/ha,100
same,Pre-emerge Herbicidal Activity CHEAL,[16]; 63 g ai/ha,100
same,Pre-emerge Herbicidal Activity CHEAL,[16]; 250 g ai/ha,100
same,Pre-emerge Herbicidal Activity SETVI,[17]; 63 g ai/ha,100
same,Pre-emerge Herbicidal Activity SETVI,[17]; 250 g ai/ha,100
same,Pre-emerge Herbicidal Activity IPOHE,[18]; 63 g ai/ha,100
same,Pre-emerge Herbicidal Activity IPOHE,[18]; 250 g ai/ha,100
same,Pre-emerge Herbicidal Activity CASOB,[19]; 63 g ai/ha,100
same,Pre-emerge Herbicidal Activity CASOB,[19]; 250 g ai/ha,100
same,Pre-emerge Herbicidal Activity ECHCG,[20]; 63 g ai/ha,80
same,Pre-emerge Herbicidal Activity ECHCG,[20]; 250 g ai/ha,95
